Marks after values point to notes of the source that are not given here.
Columns and labels:
[1] = test system: Male albino Sprague-Dawley rats; assay: Rat Social Interaction Test (SIT); type: in vivo; conditions: 5 mg/kg i.p., 1 hour prior to testing
Experimental: Rats were allowed to acclimate to the animal care facility for 5 days and were housed singly for 5 days prior to testing. Animals were handled for 5 minutes per day. The design and procedure for the Social Interaction Test was carried out as previously described by Kennett, et al. (1997). On the test day, weight matched pairs of rats (± 5%), unfamiliar to each other, were given identical treatments and returned to their home cages. Animals were randomly divided into 5 treatment groups, with 5 pairs per group, and were given one of the following i.p. treatments: Example 92 (10, 30 or 100 mg/kg), vehicle (1 ml/kg) or chlordiazepoxide (5 mg/kg). Dosing was 1 hour prior to testing. Rats were subsequently placed in a white perspex test box or arena (54 x 37 x 26 cm), whose floor was divided up into 24 equal squares, for 15 minutes. An air conditioner was used to generate background noise and to keep the room at approximately 74°F. All sessions were videotaped using a JVC camcorder (model GR-SZ1, Elmwood Park, NJ) with either TDK (HG ultimate brand) or Sony 30 minute videocassettes. All sessions were conducted between 1:00 - 4:30 P.M. Active social interaction, defined as grooming, sniffing, biting, boxing, wrestling, following and crawling over or under, was scored using a stopwatch (Sportsline model no. 226, 1/100 sec. discriminability). The number of episodes of rearing (animal completely raises up its body on its hind limbs), grooming (licking, biting, scratching of body), and face washing (i.e. hands are moved repeatedly over face), and number of squares crossed were scored. Passive social interaction (animals are lying beside or on top of each other) was not scored. All behaviors were assessed later by an observer who was blind as to the treatment of each pair. At the end of each test, the box was thoroughly wiped with moistened paper towels.
Male albino Sprague-Dawley rats (Taconic Farms, NY) were housed in pairs under a 12 hr light dark cycle (lights on at 0700 hrs.) with free access to food and water.
Example 92 was dissolved in 100% DMSO (Sigma Chemical Co., St. Louis, MO). Chlordiazepoxide (purchased from Sigma Chemical Co., St. Louis, MO) was dissolved in double distilled water. The vehicle consisted of 50% DMSO (v/v). All drug solutions were made up 10 minutes prior to injection and the solutions were discarded.
Example 34 was dissolved in 5% lactic acid, v/v. The vehicle consisted of 100% dimethylacetamide (DMA) and this was used to make up all drug solutions. All drug solutions were made up fresh each day and any unused solutions were discarded at the end of the test day. The volume of drug solution administered was 1 ml/kg.
The social interaction data (time interacting, rearing and squares crossed) were subjected to a randomized, one-way ANOVA and post hoc tests conducted using the Student-Newman-Keuls test. The data were subjected to a test of normality (Shapiro-Wilk test). The data were analyzed using the GBSTAT program, version 6.5 (Dynamics Microsystems, Inc., Silver Spring, MD, 1997). All data are presented as means ± S.E.M.

[2] = test system: Male albino Sprague-Dawley rats; assay: Rat Social Interaction Test (SIT); type: in vivo
[3] = 5 mg/kg p.o., one hour before test

CNC1=Nc2ccc(Cl)cc2C(c2ccccc2)=[N+]([O-])C1 [Chlordiazepoxide, chlordiazepoxide, reference compound]
Grooming bouts [1]: 7.3 ± 1.3
Squares Crossed [1]: 287 ± 28
Rearings ([2]; 5 mg/kg i.p., 1 hour prior to testing): 30 ± 2
Social Interaction ([2]; 5 mg/kg i.p., 1 hour prior to testing, unfamiliar rats, 15 minute test): 188 ± 15^b sec
Grooming bouts [2, 3]: 5.3 ± 0.7
Rearing [2, 3]: 35 ± 2
Squares Crossed [2, 3]: 265 ± 30
Social Interaction ([2]; 5 mg/kg p.o., one hour before test, unfamiliar cage mates in a familiar arena): 122 ± 18^S sec

From EP2140864A2 (H. Lundbeck A/S, priority 2001, dated 2002)
